From US5534536A, “Fused phenol derivatives” (Ono Pharmaceuticals Co. Ltd., priority 1993, dated 1996)
Structures can show the parent of a compound that is named as a salt.

Assays:
[1] = test system: leukotriene B4 (LTB4) production from human whole blood; test: Effect on leukotriene B4 (LTB4) production from human whole blood; assay type: cell-based; conditions: Ca ionophore A23187 stimulated, plasma LTB4 by EIA
Description: (§1) iii) Effect on leukotriene B4 (LTB4) and TXB2 production from human whole blood […] The incubation was carried out for 5 min and terminated by centrifugation (12,000 rpm for 1-2 min). Resultant plasma was stocked at -70° C. until determination of the levels of LTB4 and TXB2. Plasma levels of LTB4 and TXB2 were determined by commercially available EIA kits (Cayman Chemical Company) following partial purification. The effect of compound tested was expressed as percentage inhibition against the amounts of LTB4 and TXB2 generated in vehicle (50% ethanol solution)-treated group.

[2] = test system: TXB2 production from human whole blood; test: Effect on TXB2 production from human whole blood; assay type: cell-based; conditions: Ca ionophore A23187 stimulated, plasma TXB2 by EIA
Description: as §1

[3] = test system: lipid peroxides (TBARS) in rat liver homogenate; test: Antioxidant action (lipid peroxides as TBARS in rat liver homogenate); assay type: biochemical, Sprague-Dawley rat; conditions: FeCl2-initiated, 1 hr at 37° C.
Description: Male Sprague-Dawley rat fasted overnight was anesthetized with diethyl ether, and liver was perfused, isolated and homogenized with 1.15% KCl (10% homogenate). The assay mixture contained 200 μl of liver homogenate, 5 μl of test compound and 10 μl of 4.4 mM FeCl2. The reaction was initiated by the addition of FeCl2, and the incubation was carried out for 1 hr at 37° C. The amounts of lipid peroxides produced during this incubation period were determined as thiobarbituric acid reactive substances (TBARS) according to the method described by OHKAWA et. al. (Analytical Biochemistry, 95, 351-358, 1979). The effects of compounds tested were expressed as percentage inhibition against the amounts of TBARS produced in vehicle (50% ethanol solution)-treated group.

[4] = molecular target: T1, human 5-lipoxygenase (Homo sapiens, UniProt P09917); test: Effect on human 5-lipoxygenase activity (cytosol fraction of polymorphonuclear leukocytes); assay type: biochemical; conditions: human PMN leukocyte cytosol fraction; 14C-arachidonic acid; 30° C., 1 min, pH 7.4
T1 construct: cytosol fraction of polymorphonuclear leukocytes prepared from human peripheral blood; endogenous in cells; host or cells: polymorphonuclear leukocytes from human peripheral blood (cytosol fraction)
T1 sequence (P09917 1-674): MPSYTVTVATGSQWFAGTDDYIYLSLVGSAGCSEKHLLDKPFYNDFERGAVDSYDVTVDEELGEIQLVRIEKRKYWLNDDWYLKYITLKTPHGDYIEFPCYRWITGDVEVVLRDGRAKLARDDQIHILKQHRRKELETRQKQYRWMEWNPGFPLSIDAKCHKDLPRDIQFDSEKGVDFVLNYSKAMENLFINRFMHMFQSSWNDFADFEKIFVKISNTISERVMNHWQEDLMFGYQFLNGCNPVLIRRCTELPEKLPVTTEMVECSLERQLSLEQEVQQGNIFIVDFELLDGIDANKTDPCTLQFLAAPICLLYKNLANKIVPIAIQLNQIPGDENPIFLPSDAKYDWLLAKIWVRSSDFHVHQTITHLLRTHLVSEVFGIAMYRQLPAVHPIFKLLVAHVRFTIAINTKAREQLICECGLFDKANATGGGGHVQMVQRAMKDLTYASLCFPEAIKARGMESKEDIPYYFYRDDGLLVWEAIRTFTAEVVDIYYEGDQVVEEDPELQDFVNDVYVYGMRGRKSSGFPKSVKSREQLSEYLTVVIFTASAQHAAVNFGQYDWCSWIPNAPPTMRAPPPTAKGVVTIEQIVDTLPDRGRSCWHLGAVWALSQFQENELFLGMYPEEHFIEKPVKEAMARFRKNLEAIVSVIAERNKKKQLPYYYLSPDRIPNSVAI
Description: i) Effect on human 5-lipoxygenase activity
The assay mixture consisted of 85 μl of potassium/phosphate buffer (pH 7.4) containing 1.18 mM of calcium ion, 5 μl of cytosol fraction of polymorphonuclear leukocytes prepared from human peripheral blood and 5 μl of test compound. The reaction was initiated by the addition of 5 μl of 1 mM ^14 C-arachidonic acid after 5 min equilibration period. The incubation was carried out at 30° C. for 1 min and terminated by the addition of 300 μl of a ice-cold mixture of diethyl ether/methanol/1M citric acid (30/4/1). The mixture was mixed vigorously and centrifuged at 1700 G for 2 min at 4° C. The resultant organic layer was treated with sodium borohydride, kept cold for more than 10 min and then evaporated to dryness under gentle stream of nitrogen. After 200 μl of a mixture of diethyl ether/methanol (30/4) was added to the test tube, the contents were extracted by the addition of 100 μl of 1M citric acid followed by centrifugation (1700 G for 2 min at 4° C.). The products in the upper layer were chromatographed on silica gel thin-layer with a solvent system of diethyl ether/petroleum ether/acetic acid (85/15/0.01) and autoradiographed on X-ray film. The arachidonic acid metabolites and residual substrate were quantified by chromatoscanner. The 5-lipoxygenase activity was calculated by subtracting the conversion rate of total radioactivity into 15-hydroxy eicosatetraenoic acid from total radioactivity. The effect of compounds tested were expressed as percentage inhibition against 5-lipoxygenase activity in the vehicle (50% ethanol solution)-treated group.

[5] = molecular target: T2, human thromboxane A2 synthetase (Homo sapiens, UniProt P24557); test: Effect on human thromboxane A2 synthetase activity (washed platelets); assay type: cell-based; conditions: conversion of 14C-arachidonic acid into TXB2, 37° C., 2 min
T2 construct: Washed platelet was prepared from citrate-treated [1/9 (v/v)] human peripheral blood; endogenous in cells; host or cells: washed platelets from human peripheral blood
T2 sequence (P24557 1-533): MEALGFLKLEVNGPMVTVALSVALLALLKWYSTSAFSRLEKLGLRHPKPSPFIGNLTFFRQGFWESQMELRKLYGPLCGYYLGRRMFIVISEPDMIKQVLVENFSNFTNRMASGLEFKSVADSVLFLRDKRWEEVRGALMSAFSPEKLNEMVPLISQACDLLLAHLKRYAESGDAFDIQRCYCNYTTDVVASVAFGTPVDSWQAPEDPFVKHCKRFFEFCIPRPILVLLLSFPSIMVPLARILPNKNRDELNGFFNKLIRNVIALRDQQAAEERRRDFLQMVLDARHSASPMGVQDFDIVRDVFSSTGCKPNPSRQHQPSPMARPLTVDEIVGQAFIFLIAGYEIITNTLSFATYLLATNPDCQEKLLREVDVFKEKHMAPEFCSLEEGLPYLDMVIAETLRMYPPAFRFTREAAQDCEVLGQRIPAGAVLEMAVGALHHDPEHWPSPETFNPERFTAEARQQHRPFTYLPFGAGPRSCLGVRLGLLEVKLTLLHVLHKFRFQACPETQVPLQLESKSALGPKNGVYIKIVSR
Description: ii) Effect on human thromboxane A2 synthetase activity
Washed platelet was prepared from citrate-treated [1/9 (v/v)] human peripheral blood and suspended in Ca^++ -free Krebs-Henseleit solution (pH 7.4) at a concentration of 10.8×10^7 cells/mi. The assay mixture contained 185 μl of cell suspension, 5 μl of test compound and 10 μl of 100 μM ^14 C-arachidonic acid. Before the reaction was started by the addition of ^14 C-arachidonic acid, the other components were equilibrated for 2 min at 37 ° C. The incubation was carried out at 37° C. for 2 min and terminated by the addition of 300 μl of a mixture of diethyl ether/methanol/1M citric acid (30/4/1). The contents were mixed and then centrifuged for 2 min at 1700 G at 4° C. The products in the resultant organic layer were chromatographed on silica gel thin-layer using a solvent system of a mixture of ethyl acetate/isooctane/acetic acid/H2 O (110/50/20/100) and then autoradiographed on X-ray film. The arachidonic acid metabolites and residual substrate were quantified by chromatoscanner. TXA2 synthetase activity was expressed as the conversion rate of total radioactivity into thromboxane B2 (TXB2), a stable metabolite of TXA2. The effects of compounds tested were expressed as percentage inhibition against the conversion rate of total radioactivity into TXB2 in vehicle (50% ethanol solution)-treated group.

SMILES | inhibition at 10 µM [1] [%] | inhibition at 10 µM [2] [%] | IC50 [3] [nM] | IC50 [4] [nM] | IC50 [5] [nM]
Cc1c(O)c(CCCSc2ccccc2)c2c(c1CCn1ccnc1)OC(C)(C)C2 [2(v)] | 61 | 89 |  |  | 
Cc1c(O)c(C(C)C)c2c(c1CCn1ccnc1)OC(C)(C)C2 [Example 2, 5-Hydroxy-2,2,6-trimethyl-4-isopropyl-7(2-(1-imidazolyl)ethyl)-2,3-dihydrobenzofuran hydrochloride] | 74 | 92 |  |  | 
COC(C)(C)Cc1c(O)c(C)c(CCn2ccnc2)c2c1CC(C)(C)O2 [Example 17] | 22 | 36 |  |  | 
COCOc1c(C)c(CCCOc2cccnc2)c2c(c1C)CCC(C)(C)O2 [Example 10] |  |  | 4000 | 480 | 1400
CC1(C)CCc2c(Cn3ccnc3)c(O)c3ccccc3c2O1 [4(e)] |  |  | 2600 | 690 | 8600
Cc1c(O)c(CCCn2ccnc2)cc2c1CC(C)(C)O2 [Example 13] |  |  |  | 460 | 1000
Cc1c(O)c(CC(C)C)c2c(c1CCn1ccnc1)OC1(CCCC1)C2 [2(x)] | 70 | 82 |  |  | 
Cc1c(O)c(C)c2c(c1CCCOc1cccnc1)OC(C)(C)CC2 [Example 11] |  |  | 3700 | 1100 | 550
